Converted amounts (≈) assume the structure as drawn.
Experiments:
[1] = Distribution coefficient between octanol and sodium phosphate buffer, logD of the compound in pH 7.4 buffer by LC-MS/MS-based shake flask method
physchem = conditions: phosphate buffer, pH 7.4
Description: Aqueous solubility in pH 7.4 phosphate buffer after 24 hrs by UPLC/MS/MS analysis

[2] = Apparent permeability across apical to basolateral side in human Caco2 cells; conditions: Caco-2
hERG (KCNH2) = hERG (KCNH2) (Homo sapiens, UniProt Q12809); assay: Inhibition of human ERG at 10 uM high-throughput electrophysiology assay relative to control
[3] = molecular target: T1, Arachidonate 5-lipoxygenase-activating protein (Homo sapiens, UniProt P20292); assay: Inhibition of [3H]MK0591 binding to human FLAP expressed in […] cell membranes measured after 60 to 80 mins by scintillation counting method
T1 sequence (P20292 whole entry): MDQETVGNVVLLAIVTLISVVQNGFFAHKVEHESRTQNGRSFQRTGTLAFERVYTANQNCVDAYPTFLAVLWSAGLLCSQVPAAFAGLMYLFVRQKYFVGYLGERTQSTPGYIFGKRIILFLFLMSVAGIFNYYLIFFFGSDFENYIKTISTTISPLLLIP

[4] = molecular target: T1, Arachidonate 5-lipoxygenase-activating protein; assay: (§1) Inhibition of FLAP in human whole blood assessed as reduction in calcium ionophore-stimulated LTB4 production preincubated for 4 hrs followed by calcium ionophore stimulation and measured after 20 mins by EIA; format: tissue-based
[5] = molecular target: T2, Arachidonate 5-lipoxygenase-activating protein (Homo sapiens) (UniProt P20292); assay: as §1; format: tissue-based
T2 sequence (whole entry): T1 sequence (P20292 whole entry)

[6] = Metabolic stability in human hepatocytes assessed as parent compound remaining; format: ADME, cell-based, Hepatocyte
Cytochrome P450 3A4 = Cytochrome P450 3A4 (Homo sapiens, UniProt P08684); assay: Inhibition of recombinant human CYP3A4 expressed in Escherichia coli assessed as maximum reduction in metabolite formation using coumarin based substrate by fluorescence assay
[7] = Intrinsic clearance in cryopreserved human hepatocytes assessed as per million cells at 1 uM measured up to 60 mins by LC-MS/MS analysis; format: ADME, cell-based, Hepatocyte; conditions: read-out: CLH
[8] = Chemical stability of the compound; format: physicochemical

Sequence of hERG (KCNH2) (Q12809 whole entry): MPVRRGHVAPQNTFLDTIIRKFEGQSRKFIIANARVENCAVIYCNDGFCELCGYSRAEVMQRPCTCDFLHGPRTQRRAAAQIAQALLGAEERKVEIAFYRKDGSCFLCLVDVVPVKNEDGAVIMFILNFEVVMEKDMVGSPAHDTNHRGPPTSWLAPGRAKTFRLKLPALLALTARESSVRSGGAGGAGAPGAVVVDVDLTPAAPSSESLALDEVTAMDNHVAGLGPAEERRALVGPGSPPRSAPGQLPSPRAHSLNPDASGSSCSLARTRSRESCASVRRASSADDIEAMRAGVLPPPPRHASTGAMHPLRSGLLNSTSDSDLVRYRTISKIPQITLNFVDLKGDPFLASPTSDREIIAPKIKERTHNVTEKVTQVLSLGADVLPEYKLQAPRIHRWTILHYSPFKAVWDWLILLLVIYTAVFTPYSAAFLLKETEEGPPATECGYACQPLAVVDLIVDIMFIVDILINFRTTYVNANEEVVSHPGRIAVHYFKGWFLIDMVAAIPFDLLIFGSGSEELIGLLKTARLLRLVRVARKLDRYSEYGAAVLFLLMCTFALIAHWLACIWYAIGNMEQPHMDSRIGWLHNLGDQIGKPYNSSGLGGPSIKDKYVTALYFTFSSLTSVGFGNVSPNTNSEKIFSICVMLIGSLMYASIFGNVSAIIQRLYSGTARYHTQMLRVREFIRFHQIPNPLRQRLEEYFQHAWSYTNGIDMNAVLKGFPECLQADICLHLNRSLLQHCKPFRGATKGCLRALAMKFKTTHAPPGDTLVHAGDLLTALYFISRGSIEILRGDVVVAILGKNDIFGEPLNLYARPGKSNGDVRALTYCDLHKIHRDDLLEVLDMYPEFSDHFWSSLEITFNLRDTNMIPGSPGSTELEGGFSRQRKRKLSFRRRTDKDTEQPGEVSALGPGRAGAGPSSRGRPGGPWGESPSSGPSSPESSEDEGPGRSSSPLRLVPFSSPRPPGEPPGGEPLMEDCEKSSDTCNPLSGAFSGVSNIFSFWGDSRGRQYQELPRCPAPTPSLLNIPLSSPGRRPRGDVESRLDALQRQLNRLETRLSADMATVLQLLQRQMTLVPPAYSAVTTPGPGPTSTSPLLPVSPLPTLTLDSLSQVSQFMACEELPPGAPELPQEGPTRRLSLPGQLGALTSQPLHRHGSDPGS
Sequence of Cytochrome P450 3A4 (P08684 whole entry): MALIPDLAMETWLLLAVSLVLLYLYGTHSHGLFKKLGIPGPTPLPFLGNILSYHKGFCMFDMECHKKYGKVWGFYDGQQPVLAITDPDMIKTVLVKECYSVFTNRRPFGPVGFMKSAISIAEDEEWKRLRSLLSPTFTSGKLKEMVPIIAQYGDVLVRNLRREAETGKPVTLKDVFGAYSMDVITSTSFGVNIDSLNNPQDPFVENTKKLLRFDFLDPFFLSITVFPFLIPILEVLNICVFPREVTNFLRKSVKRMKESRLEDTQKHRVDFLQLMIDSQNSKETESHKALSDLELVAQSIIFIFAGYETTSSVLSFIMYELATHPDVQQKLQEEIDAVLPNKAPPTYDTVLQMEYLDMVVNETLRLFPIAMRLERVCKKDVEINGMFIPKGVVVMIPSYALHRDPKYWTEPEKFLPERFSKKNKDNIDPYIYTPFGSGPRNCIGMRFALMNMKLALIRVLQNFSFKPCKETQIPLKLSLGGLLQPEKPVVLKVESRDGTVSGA

For `Cc1cc(-c2ccc3c([C@@H]4C[C@H]5C[C@H]5C[C@H]4C(=O)Nc4cn(C)nc4C(N)=O)noc3c2)n[nH]1`, the logD [1] was 3.5, the solubility at 24 h (physchem) was 12 µM (≈ 5.51 µg/mL) and the Papp A→B [2] was 23 ×10⁻⁶ cm/s. For the same molecule, the inhibition at 10 µM (hERG (KCNH2)) was 12%, the IC50 [3] was 39.8 nM and the IC50 [4] was 126 nM. The fpIC50 [5] was 8.5, the Stability [6] was 69% and the IC50 (Cytochrome P450 3A4) was 3160 nM. For the same molecule, the hepatocyte CLint at 1 µM [7] was 16 µL/min/1e6 cells.
In the case of `Cn1cc(NC(=O)[C@@H]2CCCC[C@H]2C(=O)c2ccc(-c3ccn[nH]3)cc2)c(OC(F)F)n1`, the logD [1] is reported as 3 and the Stability [8] is reported as “Unstable”.
